Laboratory results reported in US20250152605A1, “METHOD AND DRUG FOR TREATING NEURONAL CEROID LIPOFUSCINOSIS” (priority 2021, published 2025).
Counter-ions that a name gives are not always drawn.

Columns and labels:
[1] = test system: BFP-LC3 stably expressing NRK cells; experiment: Lysotracker staining of BFP-LC3 stably expressing NRK cells; type: cell-based, rat; settings: treatment for 18 hours, compared with control cells
Description: Moreover, after treating BFP-LC3 stably expressing NRK cells with these seven small molecule compounds for 18 hours, staining with Lysotracker dye was performed.

SCMAS protein = SCMAS protein storage in neurons (immunofluorescence staining and western blot); type: cell-based, human; settings: CLN3^Δex7/8 neurons
Description: Sample preparation: for adherent cultured cells, exemplified by cells cultured in a six-well cell plate, the cell medium was aspirated and the cells were washed once with dPBS. About 100 μL of RIPA lysate (50 mM Tris-HCl, pH 7.5, 150 mM NaCl, 0.25% Na-deoxycholate, 0.1% NP-40, 0.1% Triton X-100) containing protease inhibitors and phosphatase inhibitors was added to each well. The cell lysate was scraped off completely with a cell scraper and collected into 1.5 mL EP tubes. Lysis was continued for 30 minutes on ice. For animal tissue, the weight of the animal tissue was weighed, and RIPA lysate containing protease inhibitors and phosphatase inhibitors was added with five times the volume of the animal tissue. The tissue was grinded on ice with a tissue grinder until there is no obvious tissue mass, collected into 1.5 mL EP tubes, and placed on ice for further lysis for 30 min. […]

NRK cells = experiment: Lysotracker staining of NRK cells, flow cytometry; type: cell-based, rat
From the text: The impact of increased p62 protein levels on the cellular lysosomal functions was detected: GFP-p62 proteins and GFP proteins of the control group were overexpressed in NRK cells, and Lysotracker dye was used to detect the acidity of lysosomes in GFP-positive cells.

[2] = test system: CLN3^Δex7/8 human neurons; experiment: Lysotracker staining of CLN3^Δex7/8 human neurons, flow cytometry; type: cell-based
Description: In analyzing the mean fluorescence intensity of neural stem cells and neuronal staining or single cell establishment of NRK cells, flow cytometry was used: the cell medium was aspirated off, after wash with dPBS once, the digestive enzyme corresponding to the cell type was added to digest into single cells; the supernatant was removed by centrifugation, and the cells were resuspended with 1 mL of fresh medium; the cell suspension with filtered through 40 μm filter membrane and the single cell filtrate was collected; the single cell filtrate was transferred to a flow tube and analyzed or sorted using BD FACS Aria III; in the analysis, the fluorescence intensity of 1×10^4 cells for each sample was analyzed to obtain the mean fluorescence intensity (MFI); for sorting, cells were received in 96 well plates with medium, one cell per well to establish a cell line.
Studies above have shown that CLN3^Δex7/8 human neurons feature lysosomal acidity dysregulation. To investigate the effect of Compound G on lysosomal acidity in CLN3^Δex7/8 neurons, Lysotracker dye was used for staining and flow cytometry was used for analyzing the fluorescence intensity of Lysotracker dye in cells.

Compound | intracellular Lysotracker staining (lysosomal acidity) [1] | abnormal storage of SCMAS protein (SCMAS protein) | intracellular lysosomal acidity (Lysotracker) (NRK cells) | Lysotracker fluorescence intensity in CLN3^Δex7/8 human neurons [2]
CO/C1=C\C(C)=C\[C@@H](C)[C@@H](O)[C@@H](C)C/C(C)=C/C=C/[C@H](OC)[C@@H]([C@@H](C)[C@@H](O)[C@H](C)[C@@]2(O)C[C@@H](O)[C@H](C)[C@@H](C(C)C)O2)OC1=O [Baf-A1, bafilomycin A1] | significant decrease in lysosomal acidity |  |  | 
COC(=O)/C=C/C(=O)OC [DMF, dimethyl fumarate, reference compound] |  | significantly reduced | significantly increase the intracellular lysosomal acidity | significantly increased
